# Data published in ChEMBL document CHEMBL4715817, “Python Cathelicidin CATHPb1 Protects against Multidrug-Resistant Staphylococcal Infections by Antimicrobial-Immunomodulatory Duality” (J Med Chem, 2018).
# Calls of active or inactive are those of the source. The calls are words filed in the database; no cut-off is given here. Peptide text beside a SMILES is read from it.
# Key:
# [1] = biological target: Mitogen-activated protein kinase 8/9 (Homo sapiens) (UniProt P45983+P45984); test: Inhibition of LPS-induced phosphorylation of Jnk1/2 in mouse peritoneal macrophage pretreated for 1 hr followed by LPS stimulation measured after 30 mins by Western blot analysis; format: tissue-based; conditions: dose 5-20 µg/ml, time 1.5 hrs
# LAD2 = test: Cytotoxicity against human LAD2 cells assessed as mast cell degranulation at 100 ug/ml relative to control; format: cell-based; conditions: at 100 µg/mL
# [2] = tested on: Stenotrophomonas maltophilia; test: Antimicrobial activity against Stenotrophomonas maltophilia IS 090223 incubated for 16 to 18 hrs by fluorescence microplate reader analysis; format: functional; conditions: time 16-18 hrs
# Mus musculus [3] = test: Immunomodulatory activity in Kunming mouse infected with vancomycin-resistant Staphylococcus aureus assessed as increased in MCP-1 level in peritoneal lavage at 10 mg/kg, ip administered 4 hrs after infection by ELISA; format: functional, organism-based
# Neutrophil [4] = test: Immunomodulatory activity in neutrophils (unknown origin) assessed as inhibition of LPS-induced TNF-alpha level at 5 to 20 ug/ml by ELISA; format: functional, cell-based; conditions: dose 5-20 µg/ml
# Neutrophil [5] = test: Immunomodulatory activity in neutrophils (unknown origin) assessed as effect on IL-6 level at 20 ug/ml measured after 12 hrs by ELISA; format: functional, cell-based; conditions: dose 20.0 µg/ml
# Macrophage [6] = test: Inhibition of NFkappaB in mouse peritoneal macrophage assessed as LPS-induced IkappaBalpha degradation at 5 to 20 ug/ml pretreated for 1 hr followed by LPS stimulation measured after 30 mins by Western blot analysis; format: tissue-based; conditions: dose 20.0 µg/ml, time 1.5 hrs
# Mus musculus [7] = test: Immunomodulatory activity in Kunming mouse infected with vancomycin-resistant Staphylococcus aureus assessed as decreased in IL-6 level in peritoneal lavage at 10 mg/kg, ip administered 24 hrs before infection by ELISA; format: functional, organism-based
# Enterococcus faecium = test: Antimicrobial activity against Enterococcus faecium IS 1299 incubated for 16 to 18 hrs by fluorescence microplate reader analysis; format: functional; conditions: time 16-18 hrs
# Mus musculus [8] = test: Immunomodulatory activity in Kunming mouse infected with vancomycin-resistant Staphylococcus aureus assessed as effect number of inflammatory monocytes in peritoneal cavity at 10 mg/kg, ip measured upto 24 hrs by flow cytometry; format: functional, organism-based; conditions: time hrs <=24
# Mus musculus [9] = test: Immunomodulatory activity in Kunming mouse infected with vancomycin-resistant Staphylococcus aureus assessed as decreased in IL-1beta level in peritoneal lavage at 10 mg/kg, ip administered 24 hrs before infection by ELISA; format: functional, organism-based
# Klebsiella oxytoca = test: Antibiofilm activity against Klebsiella oxytoca assessed as biofilm eradication at BIC-5 by XTT and crystal violet staining assay relative to control; format: functional
# Neutrophil [10] = test: Immunomodulatory activity in neutrophils (unknown origin) assessed as increase in CXCL1/KC level at 20 ug/ml measured after 12 hrs by ELISA; format: functional, cell-based; conditions: dose 20.0 µg/ml
# Pseudomonas aeruginosa [11] = test: Antimicrobial activity against Pseudomonas aeruginosa ATCC 27853 incubated for 16 to 18 hrs by fluorescence microplate reader analysis; format: functional; conditions: time 16-18 hrs
# Escherichia coli = test: Antimicrobial activity against Escherichia coli IS 08032813 incubated for 16 to 18 hrs by fluorescence microplate reader analysis; format: functional; conditions: time 16-18 hrs
# [12] = Induction of neutrophil extracellular trap formation in neutrophil (unknown origin) at 40 ug/ml measured after 3 hrs by fluorescence analysis; format: functional; conditions: dose 40 µg/ml
# [13] = biological target: Mitogen-activated protein kinase 1 and 3 (ERK2 and ERK1) (Mus musculus) (UniProt P63085+Q63844); test: Inhibition of LPS-induced phosphorylation of Erk1/2 in mouse peritoneal macrophage at 20 ug/ml pretreated for 1 hr followed by LPS stimulation measured after 30 mins by Western blot analysis relative to control; format: tissue-based; conditions: dose 20.0 µg/ml, time 1.5 hrs
# Staphylococcus aureus [14] = test: In vivo antibacterial activity against vancomycin resistant Staphylococcus aureus infected in kunming mouse assessed as reduction in bacterial load in spleen at 10 mg/kg, ip administered 4 hrs after infection; format: functional, organism-based
# [15] = Toxicity in Kunming mouse assessed as effect on TNF-alpha levels at 10 mg/kg, ip measured after 5 hrs by ELISA; format: organism-based; conditions: in vivo
# Neutrophil [16] = test: Induction of ROS production in neutrophil (unknown origin) by fluorescence assay; format: functional, cell-based; conditions: dose 10-40 µg/ml
# Mus musculus [17] = test: Immunomodulatory activity in mouse assessed as increase […] of MCP-1 in peritoneal cavity at 10 mg/kg, ip measured after 5 to 24 hrs by ELISA; format: functional, organism-based; conditions: time 5-24 hrs
# Macrophage [18] = test: Inhibition of LPS-induced phosphorylation of p38 in mouse peritoneal macrophage at 20 ug/ml pretreated for 1 hr followed by LPS stimulation measured after 30 mins by Western blot analysis relative to control; format: tissue-based; conditions: dose 20.0 µg/ml, time 1.5 hrs
# Neutrophil [19] = test: Immunomodulatory activity in neutrophils (unknown origin) assessed as effect on TNF-alpha level at 20 ug/ml measured after 12 hrs by ELISA; format: functional, cell-based; conditions: dose 20.0 µg/ml
# Macrophage [20] = test: Induction of ROS production in mouse peritoneal macrophage by fluorescence assay; format: functional, tissue-based; conditions: dose 10-40 µg/ml
# Nakaseomyces glabratus = test: Antimicrobial activity against Candida glabrata IS 09050201 incubated for 16 to 18 hrs by fluorescence microplate reader analysis; format: functional; conditions: time 16-18 hrs
# Pseudomonas aeruginosa [21] = test: Antimicrobial activity against Pseudomonas aeruginosa IS 08031014 incubated for 16 to 18 hrs by fluorescence microplate reader analysis; format: functional; conditions: time 16-18 hrs
# [22] = Immunomodulatory activity in mouse peritoneal macrophage assessed as inhibition of LPS-induced IL-6 level at 5 ug/ml measured after 6 hrs by qRT-PCR analysis relative to control; format: functional
# Klebsiella pneumoniae = test: Antimicrobial activity against Klebsiella pneumoniae IS 1400 incubated for 16 to 18 hrs by fluorescence microplate reader analysis; format: functional; conditions: time 16-18 hrs
# Enterococcus faecalis = test: Antimicrobial activity against Enterococcus faecalis IS 981 incubated for 16 to 18 hrs by fluorescence microplate reader analysis; format: functional; conditions: time 16-18 hrs
# Staphylococcus aureus [23] = test: In vivo antibacterial activity against vancomycin resistant Staphylococcus aureus infected in neutropenic kunming mouse model assessed as survival rate at 10 mg/kg, ip administered 24 hrs before infection; format: functional, organism-based
# Mus musculus [24] = test: Immunomodulatory activity in Kunming mouse infected with vancomycin-resistant Staphylococcus aureus assessed as decreased in TNF-alpha level in peritoneal lavage at 10 mg/kg, ip administered 24 hrs before infection by ELISA; format: functional, organism-based
# [25] = Immunomodulatory activity in mouse peritoneal macrophage assessed as increase in IL-10 mRNA level at 20 ug/ml measured after 6 hrs by qRT-PCR analysis relative to control; format: functional; conditions: dose 20 µg/ml
# Mus musculus [26] = test: Immunomodulatory activity in mouse assessed as increase number of inflammatory monocytes in peritoneal cavity at 10 mg/kg, ip measured after 5 to 24 hrs by flow cytometry; format: functional, organism-based; conditions: time 5-24 hrs
# Staphylococcus aureus [27] = test: In vivo antibacterial activity against methicillin resistant Staphylococcus aureus IS 08032712 infected in kunming mouse assessed as increase in survival rate at 10 mg/kg, ip administered 4 hrs after infection and measured up to 7 days after infection; format: functional, organism-based; conditions: time day <=7
# Macrophage [28] = test: Immunomodulatory activity in mouse peritoneal macrophage assessed as inhibition of LPS-induced MCP-1 level measured after 6 hrs by qRT-PCR analysis; format: functional, tissue-based; conditions: dose 5-20 µg/ml
# Neutrophil [29] = test: Immunomodulatory activity in neutrophils (unknown origin) assessed as increase in MCP-1 level at 20 ug/ml measured after 12 hrs by ELISA; format: functional, cell-based; conditions: dose 20.0 µg/ml
# Sequence of Mitogen-activated protein kinase 8/9 (Homo sapiens) (P45983 whole entry, looked up): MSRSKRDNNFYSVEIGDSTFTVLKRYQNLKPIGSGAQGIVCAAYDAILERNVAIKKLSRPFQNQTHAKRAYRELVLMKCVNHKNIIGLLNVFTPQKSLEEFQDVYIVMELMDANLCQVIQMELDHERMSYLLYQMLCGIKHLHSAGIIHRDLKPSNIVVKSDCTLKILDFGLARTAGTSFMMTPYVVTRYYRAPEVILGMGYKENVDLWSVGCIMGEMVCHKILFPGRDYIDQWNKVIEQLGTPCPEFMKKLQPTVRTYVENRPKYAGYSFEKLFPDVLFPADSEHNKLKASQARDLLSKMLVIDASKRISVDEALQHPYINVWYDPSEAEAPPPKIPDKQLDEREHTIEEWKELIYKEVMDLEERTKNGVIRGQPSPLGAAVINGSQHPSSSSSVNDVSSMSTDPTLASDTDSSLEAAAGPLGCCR
# Sequence of Mitogen-activated protein kinase 8/9 (Homo sapiens) (P45984 whole entry, looked up): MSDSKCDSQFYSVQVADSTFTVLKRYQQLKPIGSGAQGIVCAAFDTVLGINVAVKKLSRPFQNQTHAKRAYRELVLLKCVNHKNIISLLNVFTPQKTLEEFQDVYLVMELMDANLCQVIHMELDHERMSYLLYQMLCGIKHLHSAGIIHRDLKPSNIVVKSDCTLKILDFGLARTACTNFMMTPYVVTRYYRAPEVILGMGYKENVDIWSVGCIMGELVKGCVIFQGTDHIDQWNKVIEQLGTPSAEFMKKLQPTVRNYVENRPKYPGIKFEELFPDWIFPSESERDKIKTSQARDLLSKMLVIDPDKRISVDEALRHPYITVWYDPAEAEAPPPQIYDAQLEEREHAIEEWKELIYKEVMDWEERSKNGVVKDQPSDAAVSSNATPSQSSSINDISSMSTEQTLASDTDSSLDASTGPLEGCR
# Sequence of Mitogen-activated protein kinase 1 and 3 (ERK2 and ERK1) (Mus musculus) (P63085 whole entry, looked up): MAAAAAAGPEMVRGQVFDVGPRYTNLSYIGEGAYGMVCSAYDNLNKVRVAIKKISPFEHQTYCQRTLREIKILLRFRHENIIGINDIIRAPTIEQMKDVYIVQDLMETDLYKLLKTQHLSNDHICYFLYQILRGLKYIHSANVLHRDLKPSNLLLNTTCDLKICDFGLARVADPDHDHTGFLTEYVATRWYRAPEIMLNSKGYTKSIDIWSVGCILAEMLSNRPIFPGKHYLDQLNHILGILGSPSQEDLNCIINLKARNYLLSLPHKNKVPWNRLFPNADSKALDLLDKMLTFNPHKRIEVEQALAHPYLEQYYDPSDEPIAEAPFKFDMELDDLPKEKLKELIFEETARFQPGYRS
# Sequence of Mitogen-activated protein kinase 1 and 3 (ERK2 and ERK1) (Mus musculus) (Q63844 whole entry, looked up): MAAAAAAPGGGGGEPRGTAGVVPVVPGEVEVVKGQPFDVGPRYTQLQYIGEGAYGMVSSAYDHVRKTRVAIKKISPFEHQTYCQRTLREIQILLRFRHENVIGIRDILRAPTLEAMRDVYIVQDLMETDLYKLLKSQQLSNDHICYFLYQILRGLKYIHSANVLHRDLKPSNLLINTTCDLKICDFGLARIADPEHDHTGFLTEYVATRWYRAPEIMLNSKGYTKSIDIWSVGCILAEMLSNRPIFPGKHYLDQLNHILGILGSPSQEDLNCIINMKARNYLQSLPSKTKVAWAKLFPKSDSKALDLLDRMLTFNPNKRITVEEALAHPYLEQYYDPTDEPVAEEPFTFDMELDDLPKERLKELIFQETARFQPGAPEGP
smiles,measurement,setting,value
CC[C@H](C)[C@H](NC(=O)[C@@H]1CCCN1C(=O)[C@@H](NC(=O)[C@@H](NC(=O)CNC(=O)CNC(=O)[C@@H](NC(=O)[C@H](Cc1ccccc1)NC(=O)[C@@H](NC(=O)[C@H](CCCCN)NC(=O)[C@@H](NC(=O)[C@H](CCCCN)NC(=O)[C@H](CCCCN)NC(=O)[C@H](Cc1ccccc1)NC(=O)[C@@H](NC(=O)[C@H](CCCCN)NC(=O)[C@H](CCCNC(=N)N)NC(=O)[C@H](Cc1ccccc1)NC(=O)CNC(=O)[C@H](CCCCN)NC(=O)[C@H](CCCCN)NC(=O)[C@@H](NC(=O)[C@H](CCCCN)NC(=O)[C@H](CCCNC(=N)N)NC(=O)[C@H](Cc1ccccc1)NC(=O)[C@H](Cc1ccccc1)NC(=O)[C@H](CCCCN)NC(=O)[C@H](CCCCN)NC(=O)[C@H](Cc1ccccc1)NC(=O)[C@H](CCCNC(=N)N)NC(=O)[C@@H](N)CCCCN)[C@@H](C)CC)[C@@H](C)CC)[C@@H](C)O)[C@@H](C)CC)[C@@H](C)CC)[C@@H](C)O)[C@@H](C)CC)C(=O)O (H-KRFKKFFRKIKKGFRKIFKKTKIFIGGTIPI-OH),inhibition,[1],Dose-dependent effect
same,Activity,LAD2,10.97%
same,MIC,[2],1.17 µg/mL
same,Activity,Mus musculus [3],Active
same,inhibition,Neutrophil [4],Active
same,Activity,Neutrophil [5],inactive
same,inhibition,Macrophage [6],Active
same,Activity,Mus musculus [7],Active
same,MIC,Enterococcus faecium,1.17 µg/mL
same,Activity,Mus musculus [8],inactive
same,Activity,Mus musculus [9],Active
same,Activity,Klebsiella oxytoca,75.31%
same,Activity,Neutrophil [10],Active
same,MIC,Pseudomonas aeruginosa [11],1.17 µg/mL
same,MIC,Escherichia coli,1.17 µg/mL
same,Activity,[12],41.16%
same,inhibition,[13],90%
same,Activity,Staphylococcus aureus [14],Active
same,Activity,[15],Non-Toxic
same,Activity,Neutrophil [16],Dose-dependent effect
same,Activity,Mus musculus [17],Active
same,inhibition,Macrophage [18],92%
same,Activity,Neutrophil [19],inactive
same,Activity,Macrophage [20],Dose-dependent effect
same,MIC,Nakaseomyces glabratus,1.17 µg/mL
same,MIC,Pseudomonas aeruginosa [21],1.17 µg/mL
same,inhibition at 5 µg/mL,[22],99.6%
same,MIC,Klebsiella pneumoniae,1.17 µg/mL
same,MIC,Enterococcus faecalis,1.17 µg/mL
same,Activity,Staphylococcus aureus [23],inactive
same,Activity,Mus musculus [24],Active
same,fold change (FC),[25],8
same,Activity,Mus musculus [26],Active
same,Activity,Staphylococcus aureus [27],Active
same,inhibition,Macrophage [28],Dose-dependent effect
same,Activity,Neutrophil [29],Active
